Assays:
Format in all cases: cell-based, human
DU145 cells = experiment: Cell viability by MTT assay, DU145
Protocol: Figure 3 Comparison of the effect of 2-oxindole fluorinated derivatives on the proliferation of human prostate cancer cells. (A) Normal (PTN2 and RWPE-1) and cancer (PC3,DU145 and LNCaP) prostate cells were treated with different doses of the compounds for 24 hours and cell viability was monitored by MTT assay. […] (C) PC-3, DU145 and LNCaP cells were treated with 25 µM of compound 8c for different times. Values were normalized with the control and represent the mean ± SD of at least three independent experiments. *p < 0.05 and **p < 0.01 compared to control by the Student’s - test.
Human prostate cancer epithelial PC-3, DU145 and LNCaP and human prostate normal RWPE-1 cells were purchased from American Type Culture Collection (ATCC CRL-1435 CRL-1740 and CRL 11609 respectively) (Rockville, MD, USA). The human prostate normal PNT2 cell line was purchased to ECACC (European Collection of Cell cultures, Salisbury, SP4 0JG, UK). Cells were routinely grown in RPMI 1640 medium supplemented with 100 IU/ml penicillin G sodium, 100 µg/ml streptomycin sulfate, 0.25 µg/ml amphotericin B (Invitrogen, Paisley, UK) and 10% fetal calf serum. Cells were used at passages between 10–20. For treatment experiments, cells were plated and grown over night, the medium was then replaced with serum-free RPMI 1640 for 24 hours and then incubated with different doses of the compounds for the indicated times.
Cell viability was determined by 3-(4,5-dimethylthiazol-2-yl)-2,5-diphenyltetrazolium bromide (MTT) (Sigma-Aldrich) method. In brief, a total of 5000 cells/well were seeded into 12-well plate in a final volume of 1 mL. After treatments, 20 µl MTT solution (5 mg/ml in PBS) was added to the medium and cells were incubated at 37 °C for 4 h. Then, the supernatant was discarded and isopropanol was added to dissolve the formazan crystals. Treatments were carried out in triplicate. The optical density in each well was evaluated by measurement of absorbance at 490 and 650 nm using a microplate reader (ELX 800 Bio-Tek Intruments, INC). IC50 values were calculated using GraphPad Prism vs 6.0 (GraphPad Software, Inc, La Jolla, CA, USA). Cell viability was also determined by counting viable and dead cells by Trypan blue staining. Trypan blue positive and negative cells were counted using a Countess^TM automated cell counter (Invitrogen, Carlsbad, CA, USA). Results were expressed in relation to total number of cells counted.

PC-3 cells = experiment: Cell cycle analysis by flow cytometry (Propidium Iodide), PC-3; conditions: PC-3, 24 h, 25 μM and 50 μM tested (concentration of this value not stated)
Protocol: For that, we treated PC-3 and LNCaP cells with 25 μM and 50 μM of compound 8c for 24 h and performed cell cycle analysis by flow cytometry using Propidium Iodide (PI). […] It is worthy to note that when PC-3 cells were treated with compound 8c, 80% of cells were in subG0 phase (Fig. 4A).
(§1) Figure 4 Cell Cycle analysis in 8c-treated prostate cancer cells. (A) PC-3 and LNCaP cells were treated with compound 8c for 24 hours and cell cycle analysis was analyzed by flow cytometry using Propidium Iodide (PI). Percentage of cells in subG0, G1, S, and G2/M phases is indicated in the histogram. (B) Levels of Cyclin D1, p-p53, p53, p21 and cleaved Caspase 3 (17 kDa fragment) were determined by Western blot. Upper panel, representative Western blot of two different experiments. β-tubulin (β-Tub) serves as a loading control. Lower panel, the densitometric analyses of bands represented as the mean ± SD of the two different experiments. *p < 0.05 and **p < 0.01 compared with the control group by the Student’s t-test.
Flow cytometry was used to detect the distribution of cell cycle. After being cultivated with the treatment, 10^5 cells in 35 mm culture dish were harvested in 0.35% trypsin, collected and fixed with 70% cold ethanol at 4 °C for 1 h. Then, cells were centrifuged at 1500 g for 5 min and incubated in 0.5 ml PBS containing 0.1 mg/ml RNase for 30 min at 37 °C. […]

Cyclin D1 = Cyclin D1 level by Western blot in PC-3 and LNCaP cells
Protocol: as §1
There are many intracellular mechanisms whereby AMPK activation inhibits cell growth. […] To further investigate the mechanism underpinning the cell viability inhibitory effect of compound 8c, levels of Cyclin D1 were determined by Western blot in PC-3 and LNCaP cells.
Cells were lysed in Lysis buffer (50 mM Tris pH 7.4, 0.8 M NaCl, 5 mM MgCl2, 0.1% Triton X-100) containing Protease Inhibitor and Phosphatase inhibitor Cocktails (Roche, Basel, Switzerland). Protein concentrations were measured by BioRad™ protein assay kit (Richmond, CA, USA). […] Films were analyzed by densitometry. […]

SMILES: O=C1Nc2ccccc2C1(F)Cc1ccc(-c2ccccc2)o1 (stereo not shown) [Compound 8c, 3-fluoro-3-((5-phenylfuran-2-yl)methyl)indolin-2-one]
- inhibitory efficacy on cells viability at 50 μM (DU145 cells; DU145, 50 μM): 88%
- IC50 (DU145 cells; Homo sapiens, DU-145, DU145, MTT, 24 hours): 19 µM
- cells in subG0 phase (PC-3 cells): 80%
- Cyclin D1 level (Cyclin D1): marked decrease in Cyclin D1 level

Source: paper PMC5847527, “Identification of a novel 2-oxindole fluorinated derivative as in vivo antitumor agent for prostate cancer acting via AMPK activation” (Scientific Reports, 2018)
